Source: ChEMBL document CHEMBL6087462, “Cuminaldehyde Potentiates Antiproteolytic Peptide Efficacy via Parallel Pathways of Enhanced Inner Membrane-Damaging Activity and Inhibition of Bacterial Energy Metabolism” (J Med Chem, 2025)

Key:
Salmonella typhimurium [1] = test: Synergistic antimicrobial activity against Salmonella typhimurium 7731 assessed as fractional inhibitory concentration index in presence of carvacrol by checkerboard broth microdilution assay; type: functional, Salmonella enterica subsp. enterica serovar Typhimurium
Escherichia coli [2] = test: Antimicrobial activity against Escherichia coli 078 assessed as reduction in microbial growth by CLSI based broth microdilution method; type: functional
Salmonella typhimurium [3] = test: Antimicrobial activity against Salmonella typhimurium ATCC 7731 assessed as cuminaldehyde MIC by CLSI based broth microdilution method; type: functional, Salmonella enterica subsp. enterica serovar Typhimurium; conditions: Salmonella enterica
Escherichia coli [4] = test: Synergistic antimicrobial activity against Escherichia coli 25922 assessed as fractional inhibitory concentration index in presence of citronellal by checkerboard broth microdilution assay; type: functional
Escherichia coli [5] = test: Synergistic antimicrobial activity against Escherichia coli 078 assessed as fractional inhibitory concentration index in presence of cuminaldehyde by checkerboard broth microdilution assay; type: functional, 78
Pseudomonas aeruginosa [6] = test: Synergistic antimicrobial activity against Pseudomonas aeruginosa 27853 assessed as fractional inhibitory concentration index in presence of cuminaldehyde by checkerboard broth microdilution assay; type: functional
Escherichia coli [7] = test: Antimicrobial activity against Escherichia coli K88 assessed as cuminaldehyde MIC by CLSI based broth microdilution method; type: functional
Escherichia coli [8] = test: Synergistic antimicrobial activity against Escherichia coli K99 assessed as fractional inhibitory concentration by checkerboard broth microdilution assay; type: functional
Salmonella typhimurium [9] = test: Antimicrobial activity against Salmonella typhimurium ATCC 7731 assessed as reduction in microbial growth in presence of cuminaldehyde by CLSI based broth microdilution method; type: functional, Salmonella enterica subsp. enterica serovar Typhimurium; conditions: Salmonella enterica
[10] = tested on: Staphylococcus epidermidis; test: Antimicrobial activity against Staphylococcus epidermidis ATCC 12228 assessed as reduction in microbial growth in presence of cuminaldehyde by CLSI based broth microdilution method; type: functional
Pseudomonas aeruginosa [11] = test: Synergistic antimicrobial activity against Pseudomonas aeruginosa 27853 assessed as fractional inhibitory concentration index in presence of citral by checkerboard broth microdilution assay; type: functional
Salmonella typhimurium [12] = test: Antimicrobial activity against Salmonella typhimurium ATCC 14028 assessed as reduction in microbial growth by CLSI based broth microdilution method; type: functional, Salmonella enterica subsp. enterica serovar Typhimurium; conditions: Salmonella enterica
Escherichia coli [13] = test: Synergistic antimicrobial activity against Escherichia coli UB1005 assessed as fractional inhibitory concentration index in presence of thymol by checkerboard broth microdilution assay; type: functional
Pseudomonas aeruginosa [14] = test: Synergistic antimicrobial activity against Pseudomonas aeruginosa 27853 assessed as fractional inhibitory concentration index in presence of citronellal by checkerboard broth microdilution assay; type: functional
Staphylococcus aureus [15] = test: Synergistic antimicrobial activity against Staphylococcus aureus 25923 assessed as fractional inhibitory concentration index in presence of citronellal by checkerboard broth microdilution assay; type: functional
Escherichia coli [16] = test: Synergistic antimicrobial activity against Escherichia coli K99 assessed as fractional inhibitory concentration index in presence of citronellal by checkerboard broth microdilution assay; type: functional
Staphylococcus aureus [17] = test: Synergistic antimicrobial activity against Staphylococcus aureus 29213 assessed as fractional inhibitory concentration index in presence of thymol by checkerboard broth microdilution assay; type: functional
[18] = Synergistic antimicrobial activity against Salmonella enterica subsp. enterica serovar Pullorum 7913 assessed as fractional inhibitory concentration index in presence of citronellal by checkerboard broth microdilution assay; type: functional
Staphylococcus aureus [19] = test: Synergistic antimicrobial activity against Staphylococcus aureus 43300 assessed as fractional inhibitory concentration index in presence of thymol by checkerboard broth microdilution assay; type: functional
Staphylococcus aureus [20] = test: Antimicrobial activity against Staphylococcus aureus ATCC 25923 assessed as reduction in microbial growth by CLSI based broth microdilution method; type: functional
Escherichia coli [21] = test: Synergistic antimicrobial activity against Escherichia coli 25922 assessed as fractional inhibitory concentration index in presence of perillaldehyde by checkerboard broth microdilution assay; type: functional
Escherichia coli [22] = test: Antimicrobial activity against Escherichia coli UB 1005 assessed as reduction in microbial growth in presence of cuminaldehyde by CLSI based broth microdilution method; type: functional
Escherichia coli [23] = test: Antimicrobial activity against Escherichia coli K99 assessed as cuminaldehyde MIC by CLSI based broth microdilution method; type: functional
[24] = Synergistic antimicrobial activity against Salmonella enterica subsp. enterica serovar Pullorum 7913 assessed as fractional inhibitory concentration index in presence of cuminaldehyde by checkerboard broth microdilution assay; type: functional
Salmonella typhimurium [25] = test: Synergistic antimicrobial activity against Salmonella typhimurium ATCC 7731 assessed as fractional inhibitory concentration by checkerboard broth microdilution assay; type: functional, Salmonella enterica subsp. enterica serovar Typhimurium
[26] = Synergistic antimicrobial activity against Salmonella enterica subsp. enterica serovar Pullorum 7913 assessed as fractional inhibitory concentration index in presence of thymol by checkerboard broth microdilution assay; type: functional
Salmonella typhimurium [27] = test: Synergistic antimicrobial activity against Salmonella typhimurium 14028 assessed as fractional inhibitory concentration index in presence of carvacrol by checkerboard broth microdilution assay; type: functional, Salmonella enterica subsp. enterica serovar Typhimurium
Escherichia coli [28] = test: Antimicrobial activity against Escherichia coli K99 assessed as reduction in microbial growth in presence of cuminaldehyde by CLSI based broth microdilution method; type: functional
[29] = Synergistic antimicrobial activity against Salmonella enterica subsp. enterica serovar Pullorum 7913 assessed as fractional inhibitory concentration index in presence of perillaldehyde by checkerboard broth microdilution assay; type: functional
Escherichia coli [30] = test: Antimicrobial activity against Escherichia coli K88 assessed as reduction in microbial growth by CLSI based broth microdilution method; type: functional
Enterococcus faecalis = test: Antimicrobial activity against Enterococcus faecalis ATCC 29212 assessed as reduction in microbial growth by CLSI based broth microdilution method; type: functional
Escherichia coli [31] = test: Synergistic antimicrobial activity against Escherichia coli ATCC 25922 assessed as fractional inhibitory concentration by checkerboard broth microdilution assay; type: functional
Escherichia coli [32] = test: Synergistic antimicrobial activity against Escherichia coli K88 assessed as fractional inhibitory concentration index in presence of citronellal by checkerboard broth microdilution assay; type: functional
Salmonella typhimurium [33] = test: Synergistic antimicrobial activity against Salmonella typhimurium 7731 assessed as fractional inhibitory concentration index in presence of cuminaldehyde by checkerboard broth microdilution assay; type: functional, Salmonella enterica subsp. enterica serovar Typhimurium
Salmonella typhimurium [34] = test: Synergistic antimicrobial activity against Salmonella typhimurium 7731 assessed as fractional inhibitory concentration index in presence of citronellal by checkerboard broth microdilution assay; type: functional, Salmonella enterica subsp. enterica serovar Typhimurium
Escherichia coli [35] = test: Synergistic antimicrobial activity against Escherichia coli 25922 assessed as fractional inhibitory concentration index in presence of thymol by checkerboard broth microdilution assay; type: functional
Escherichia coli [36] = test: Antimicrobial activity against Escherichia coli K99 assessed as reduction in microbial growth by CLSI based broth microdilution method; type: functional
Staphylococcus aureus [37] = test: Synergistic antimicrobial activity against Staphylococcus aureus 43300 assessed as fractional inhibitory concentration index in presence of citral by checkerboard broth microdilution assay; type: functional
Salmonella typhimurium [38] = test: Synergistic antimicrobial activity against Salmonella typhimurium 14028 assessed as fractional inhibitory concentration index in presence of cuminaldehyde by checkerboard broth microdilution assay; type: functional, Salmonella enterica subsp. enterica serovar Typhimurium
Escherichia coli [39] = test: Synergistic antimicrobial activity against Escherichia coli UB 1005 assessed as fractional inhibitory concentration by checkerboard broth microdilution assay; type: functional
Staphylococcus aureus [40] = test: Antimicrobial activity against Staphylococcus aureus 43300 assessed as reduction in microbial growth in presence of cuminaldehyde by CLSI based broth microdilution method; type: functional
Pseudomonas aeruginosa [41] = test: Antimicrobial activity against Pseudomonas aeruginosa ATCC 27853 assessed as reduction in microbial growth in presence of cuminaldehyde by CLSI based broth microdilution method; type: functional
Staphylococcus aureus [42] = test: Antimicrobial activity against Staphylococcus aureus ATCC 29213 assessed as cuminaldehyde MIC by CLSI based broth microdilution method; type: functional

CC[C@H](C)[C@H](NC(=O)[C@@H](NC(=O)[C@@H](CCCNC(=N)N)NC(=O)[C@H](C)NC(=O)[C@H](C)NC(=O)[C@@H](N)Cc1cccc2ccccc12)[C@@H](C)CC)C(=O)N[C@@H](CC(C)C)C(=O)N[C@H](CCCNC(=N)N)C(=O)N[C@@H](Cc1c[nH]c2ccccc12)C(=O)N[C@H](CCCNC(=N)N)C(=O)N[C@@H](Cc1ccccc1)C(=O)N[C@@H](CCCNC(=N)N)C(=O)O
fractional inhibitory concentration index (FICI) (Salmonella typhimurium [1]): 0.5
MIC (Escherichia coli [2]): 8 µg/mL
MIC (Salmonella typhimurium [3]): 1020 µg/mL
fractional inhibitory concentration index (FICI) (Escherichia coli [4]): 0.25
fractional inhibitory concentration index (FICI) (Escherichia coli [5]): 0.125
fractional inhibitory concentration index (FICI) (Pseudomonas aeruginosa [6]): 0.156
MIC (Escherichia coli [7]): 1020 µg/mL
FIC (Escherichia coli [8]): 0.25
MIC (Salmonella typhimurium [9]): 0.5 µg/mL
MIC [10]: 4 µg/mL
fractional inhibitory concentration index (FICI) (Pseudomonas aeruginosa [11]): 0.141
MIC (Salmonella typhimurium [12]): 4 µg/mL
fractional inhibitory concentration index (FICI) (Escherichia coli [13]): 0.25
fractional inhibitory concentration index (FICI) (Pseudomonas aeruginosa [14]): 0.254
fractional inhibitory concentration index (FICI) (Staphylococcus aureus [15]): 0.25
fractional inhibitory concentration index (FICI) (Escherichia coli [16]): 0.516
fractional inhibitory concentration index (FICI) (Staphylococcus aureus [17]): 0.25
fractional inhibitory concentration index (FICI) [18]: 0.25
fractional inhibitory concentration index (FICI) (Staphylococcus aureus [19]): 0.75
MIC (Staphylococcus aureus [20]): 16 µg/mL
fractional inhibitory concentration index (FICI) (Escherichia coli [21]): 0.156
MIC (Escherichia coli [22]): 0.5 µg/mL
MIC (Escherichia coli [23]): 1020 µg/mL
fractional inhibitory concentration index (FICI) [24]: 0.125
FIC (Salmonella typhimurium [25]): 0.063
fractional inhibitory concentration index (FICI) [26]: 0.75
fractional inhibitory concentration index (FICI) (Salmonella typhimurium [27]): 0.5
MIC (Escherichia coli [28]): 0.25 µg/mL
fractional inhibitory concentration index (FICI) [29]: 0.375
MIC (Escherichia coli [30]): 4 µg/mL
MIC (Enterococcus faecalis): 8 µg/mL
FIC (Escherichia coli [31]): 0.125
fractional inhibitory concentration index (FICI) (Escherichia coli [32]): 0.156
fractional inhibitory concentration index (FICI) (Salmonella typhimurium [33]): 0.125
fractional inhibitory concentration index (FICI) (Salmonella typhimurium [34]): 0.254
fractional inhibitory concentration index (FICI) (Escherichia coli [35]): 0.313
MIC (Escherichia coli [36]): 8 µg/mL
fractional inhibitory concentration index (FICI) (Staphylococcus aureus [37]): 0.313
fractional inhibitory concentration index (FICI) (Salmonella typhimurium [38]): 0.25
FIC (Escherichia coli [39]): 0.125
MIC (Staphylococcus aureus [40]): 4 µg/mL
MIC (Pseudomonas aeruginosa [41]): 2 µg/mL
MIC (Staphylococcus aureus [42]): 512 µg/mL
